Measured values as given in paper PMC4876928 (Clinical cancer research : an official journal of the …, 2016).

Assay: Phase I safety and tolerability: DLTs, MTD, adverse events
Type: in vivo, human
[1] = All patients in study (n=120), G3
[2] = All patients in study (n=120), ≤G2
[3] = All patients in study (n=120), ≥G4

For `Cc1c(CN2CCN(C(=O)[C@H](C)O)CC2)sc2c(N3CCOCC3)nc(-c3cnc(N)nc3)nc12` [apitolisib], the “Decreased appetite, treatment related AE, n (%)” value (shortened to “Decreased appetite … (%)”) (30mg 28/28d (n=27), G3) was 0, the “Diarrhea, treatment related AE, n (%)” value (30mg 28/28d (n=27), G3) was 2 (7%) and the “Dry skin, treatment related AE, n (%)” value (30mg 28/28d (n=27), G3) was 0. The “Fatigue, treatment related AE, n (%)” value (30mg 28/28d (n=27), G3) was 4 (15%), the “Hyperglycemia, treatment related AE, n (%)” value (“Hyperglycemia … (%)” below) (30mg 28/28d (n=27), G3) was 1 (4%) and the “Liver dysfunction (abnormal LFTs), treatment related AE, n (%)” value (“Liver dysfunction (abnormal LFTs) … (%)” for short) (30mg 28/28d (n=27), G3) was 1 (4%). For the same molecule, the “Mucosal inflammation, treatment related AE, n (%)” value (from here on “Mucosal inflammation … (%)”) (30mg 28/28d (n=27), G3) was 0, the “Nausea, treatment related AE, n (%)” value (30mg 28/28d (n=27), G3) was 1 (4%) and the “Patients with any AE related to apitolisib, n (%)” value (“Patients with any AE related … (%)” for short) (30mg 28/28d (n=27), G3) was 14 (52%). The “Pneumonitis, treatment related AE, n (%)” value (30mg 28/28d (n=27), G3) was 1 (4%), the “Pruritus, treatment related AE, n (%)” value (30mg 28/28d (n=27), G3) was 0 and the “Rash (maculopapular, pruritic, macular, erythematous, generalized), treatment related AE, n (%)” value (“Rash … (%)” for short) (30mg 28/28d (n=27), G3) was 5 (19%). For the same molecule, the “Vomiting, treatment related AE, n (%)” value (30mg 28/28d (n=27), G3) was 0, the “Decreased appetite … (%)” value (30mg 28/28d (n=27), ≤G2) was 13 (48%) and the “Diarrhea, treatment related AE, n (%)” value (30mg 28/28d (n=27), ≤G2) was 16 (59%). The “Dry skin, treatment related AE, n (%)” value (30mg 28/28d (n=27), ≤G2) was 7 (26%), the “Fatigue, treatment related AE, n (%)” value (30mg 28/28d (n=27), ≤G2) was 15 (56%) and the “Hyperglycemia … (%)” value (30mg 28/28d (n=27), ≤G2) was 0. For the same molecule, the “Liver dysfunction (abnormal LFTs) … (%)” value (30mg 28/28d (n=27), ≤G2) was 1 (4%), the “Mucosal inflammation … (%)” value (30mg 28/28d (n=27), ≤G2) was 3 (11%) and the “Nausea, treatment related AE, n (%)” value (30mg 28/28d (n=27), ≤G2) was 11 (41%). For the same molecule, the “Patients with any AE related … (%)” value (30mg 28/28d (n=27), ≤G2) was 12 (44%), the “Pneumonitis, treatment related AE, n (%)” value (30mg 28/28d (n=27), ≤G2) was 3 (11%) and the “Pruritus, treatment related AE, n (%)” value (30mg 28/28d (n=27), ≤G2) was 2 (7%). The “Rash … (%)” value (30mg 28/28d (n=27), ≤G2) was 12 (44%), the “Vomiting, treatment related AE, n (%)” value (30mg 28/28d (n=27), ≤G2) was 5 (19%) and the “Decreased appetite … (%)” value (30mg 28/28d (n=27), ≥G4) was 0. The “Diarrhea, treatment related AE, n (%)” value (30mg 28/28d (n=27), ≥G4) was 0, the “Dry skin, treatment related AE, n (%)” value (30mg 28/28d (n=27), ≥G4) was 0 and the “Fatigue, treatment related AE, n (%)” value (30mg 28/28d (n=27), ≥G4) was 0. The “Hyperglycemia … (%)” value (30mg 28/28d (n=27), ≥G4) was 1 (4%), the “Liver dysfunction (abnormal LFTs) … (%)” value (30mg 28/28d (n=27), ≥G4) was 0 and the “Mucosal inflammation … (%)” value (30mg 28/28d (n=27), ≥G4) was 0. For the same molecule, the “Nausea, treatment related AE, n (%)” value (30mg 28/28d (n=27), ≥G4) was 0, the “Patients with any AE related … (%)” value (30mg 28/28d (n=27), ≥G4) was 1 (4%) and the “Pneumonitis, treatment related AE, n (%)” value (30mg 28/28d (n=27), ≥G4) was 0. The “Pruritus, treatment related AE, n (%)” value (30mg 28/28d (n=27), ≥G4) was 0, the “Rash … (%)” value (30mg 28/28d (n=27), ≥G4) was 0 and the “Vomiting, treatment related AE, n (%)” value (30mg 28/28d (n=27), ≥G4) was 0. The “DLTs, Description” value (40 mg 21/28 d, stage 1) was “G4 fasting hyperglycemia”, the “Decreased appetite … (%)” value (40mg 28/28d (n=51), G3) was 0 and the “Diarrhea, treatment related AE, n (%)” value (40mg 28/28d (n=51), G3) was 5 (10%). The “Dry skin, treatment related AE, n (%)” value (40mg 28/28d (n=51), G3) was 1 (2%), the “Fatigue, treatment related AE, n (%)” value (40mg 28/28d (n=51), G3) was 2 (4%) and the “Hyperglycemia … (%)” value (40mg 28/28d (n=51), G3) was 9 (18%). For the same molecule, the “Liver dysfunction (abnormal LFTs) … (%)” value (40mg 28/28d (n=51), G3) was 6 (12%), the “Mucosal inflammation … (%)” value (40mg 28/28d (n=51), G3) was 3 (6%) and the “Nausea, treatment related AE, n (%)” value (40mg 28/28d (n=51), G3) was 1 (2%). The “Patients with any AE related … (%)” value (40mg 28/28d (n=51), G3) was 26 (51%), the “Pneumonitis, treatment related AE, n (%)” value (40mg 28/28d (n=51), G3) was 2 (4%) and the “Pruritus, treatment related AE, n (%)” value (40mg 28/28d (n=51), G3) was 1 (2%). For the same molecule, the “Rash … (%)” value (40mg 28/28d (n=51), G3) was 7 (14%), the “Vomiting, treatment related AE, n (%)” value (40mg 28/28d (n=51), G3) was 1 (2%) and the “Decreased appetite … (%)” value (40mg 28/28d (n=51), ≤G2) was 11 (22%). The “Diarrhea, treatment related AE, n (%)” value (40mg 28/28d (n=51), ≤G2) was 23 (45%), the “Dry skin, treatment related AE, n (%)” value (40mg 28/28d (n=51), ≤G2) was 7 (14%) and the “Fatigue, treatment related AE, n (%)” value (40mg 28/28d (n=51), ≤G2) was 34 (67%). The “Hyperglycemia … (%)” value (40mg 28/28d (n=51), ≤G2) was 5 (10%), the “Liver dysfunction (abnormal LFTs) … (%)” value (40mg 28/28d (n=51), ≤G2) was 2 (4%) and the “Mucosal inflammation … (%)” value (40mg 28/28d (n=51), ≤G2) was 15 (29%). For the same molecule, the “Nausea, treatment related AE, n (%)” value (40mg 28/28d (n=51), ≤G2) was 22 (43%), the “Patients with any AE related … (%)” value (40mg 28/28d (n=51), ≤G2) was 20 (39%) and the “Pneumonitis, treatment related AE, n (%)” value (40mg 28/28d (n=51), ≤G2) was 1 (2%). For the same molecule, the “Pruritus, treatment related AE, n (%)” value (40mg 28/28d (n=51), ≤G2) was 13 (25%), the “Rash … (%)” value (40mg 28/28d (n=51), ≤G2) was 20 (39%) and the “Vomiting, treatment related AE, n (%)” value (40mg 28/28d (n=51), ≤G2) was 10 (20%). The “Decreased appetite … (%)” value (40mg 28/28d (n=51), ≥G4) was 0, the “Diarrhea, treatment related AE, n (%)” value (40mg 28/28d (n=51), ≥G4) was 0 and the “Dry skin, treatment related AE, n (%)” value (40mg 28/28d (n=51), ≥G4) was 0. The “Fatigue, treatment related AE, n (%)” value (40mg 28/28d (n=51), ≥G4) was 0, the “Hyperglycemia … (%)” value (40mg 28/28d (n=51), ≥G4) was 0 and the “Liver dysfunction (abnormal LFTs) … (%)” value (40mg 28/28d (n=51), ≥G4) was 0. The “Mucosal inflammation … (%)” value (40mg 28/28d (n=51), ≥G4) was 0, the “Nausea, treatment related AE, n (%)” value (40mg 28/28d (n=51), ≥G4) was 0 and the “Patients with any AE related … (%)” value (40mg 28/28d (n=51), ≥G4) was 5 (10%). For the same molecule, the “Pneumonitis, treatment related AE, n (%)” value (40mg 28/28d (n=51), ≥G4) was 2 (4%), the “Pruritus, treatment related AE, n (%)” value (40mg 28/28d (n=51), ≥G4) was 0 and the “Rash … (%)” value (40mg 28/28d (n=51), ≥G4) was 0. For the same molecule, the “Vomiting, treatment related AE, n (%)” value (40mg 28/28d (n=51), ≥G4) was 0, the “DLTs, Description” value (70 mg 21/28 d, stage 1) was “G3 maculopapular rash and G3 fasting hyperglycemia” and the “treatment related deaths on study” value (1 at 50 mg QD 21/28, 3 at 40 mg QD 28/28) was 4. The “patients requiring treatment discontinuation for rash” value (4 patients in stage 2 (2 at 40 mg and 2 at 30 mg QD)) was 5.1%, the “DLTs, Description” value (All doses, stage 1) was “Hyperglycemia (n=2) Rash” and the “Decreased appetite … (%)” value [1] was 0. For the same molecule, the “Diarrhea, treatment related AE, n (%)” value [1] was 11 (9%), the “Dry skin, treatment related AE, n (%)” value [1] was 1 (1%) and the “Fatigue, treatment related AE, n (%)” value [1] was 7 (6%). For the same molecule, the “Hyperglycemia … (%)” value [1] was 18 (15%), the “Liver dysfunction (abnormal LFTs) … (%)” value [1] was 9 (8%) and the “Mucosal inflammation … (%)” value [1] was 4 (3%). The “Nausea, treatment related AE, n (%)” value [1] was 2 (2%), the “Patients with any AE related … (%)” value [1] was 51 (42%) and the “Pneumonitis, treatment related AE, n (%)” value [1] was 4 (3%). The “Pruritus, treatment related AE, n (%)” value [1] was 1 (1%), the “Rash … (%)” value [1] was 14 (12%) and the “Vomiting, treatment related AE, n (%)” value [1] was 1 (1%). For the same molecule, the “Decreased appetite … (%)” value [2] was 42 (35%), the “Diarrhea, treatment related AE, n (%)” value [2] was 60 (50%) and the “Dry skin, treatment related AE, n (%)” value [2] was 16 (13%). For the same molecule, the “Fatigue, treatment related AE, n (%)” value [2] was 73 (61%), the “Hyperglycemia … (%)” value [2] was 9 (8%) and the “Liver dysfunction (abnormal LFTs) … (%)” value [2] was 4 (3%). The “Mucosal inflammation … (%)” value [2] was 27 (23%), the “Nausea, treatment related AE, n (%)” value [2] was 48 (40%) and the “Patients with any AE related … (%)” value [2] was 60 (50%). For the same molecule, the “Pneumonitis, treatment related AE, n (%)” value [2] was 8 (7%), the “Pruritus, treatment related AE, n (%)” value [2] was 22 (18%) and the “Rash … (%)” value [2] was 47 (39%). The “Vomiting, treatment related AE, n (%)” value [2] was 24 (20%), the “Decreased appetite … (%)” value [3] was 0 and the “Diarrhea, treatment related AE, n (%)” value [3] was 0. The “Dry skin, treatment related AE, n (%)” value [3] was 0, the “Fatigue, treatment related AE, n (%)” value [3] was 0 and the “Hyperglycemia … (%)” value [3] was 2 (2%). The “Liver dysfunction (abnormal LFTs) … (%)” value [3] was 0, the “Mucosal inflammation … (%)” value [3] was 0 and the “Nausea, treatment related AE, n (%)” value [3] was 0. The “Patients with any AE related … (%)” value [3] was 8 (7%), the “Pneumonitis, treatment related AE, n (%)” value [3] was 2 (2%) and the “Pruritus, treatment related AE, n (%)” value [3] was 0. The “Rash … (%)” value [3] was 0, the “Vomiting, treatment related AE, n (%)” value [3] was 0 and the “maximum tolerated dose (MTD)” value (QD, 21/28-day schedule, DLT <33.3%) was 50 mg. The “recommended phase 2 dose (RP2D)” value (QD, 28/28-day schedule, except MPM patients) was 40 mg, the “recommended dose for MPM” value (QD, 28/28 schedule, malignant pleural mesothelioma patients) was 30 mg and the “maximum administered dose (MAD)” value (QD, continuous 28/28 schedule) was 50 mg. For the same molecule, the “diarrhea, treatment related ≥G3” value (RP2D 40 mg QD) was 10%, the “fatigue, treatment related ≥G3” value (RP2D 40 mg QD) was 4% and the “hyperglycemia, treatment related ≥G3” value (RP2D 40 mg QD) was 18%. The “liver dysfunction, treatment related ≥G3” value (RP2D 40 mg QD) was 12%, the “mucosal inflammation, treatment related ≥G3” value (RP2D 40 mg QD) was 6% and the “pneumonitis, treatment related ≥G3” value (RP2D 40 mg QD) was 8%. For the same molecule, the “rash, treatment related ≥G3” value (RP2D 40 mg QD) was 14%, the “pneumonitis cases reported on study” value (all patients, six severe) was 14 and the MTD (continuous 28/28 schedule) was “not reached”. The “dose reductions due to diarrhea” value (human, in vivo, oral) was 2 n, the “dose reductions due to mucosal inflammation” value (human, in vivo, oral) was 2 n and the “dose reductions due to pneumonitis” value (human, in vivo, oral) was 2 n. The “rate of severe pneumonitis (grade ≥3)” value (in vivo) was 8% and the “patients with pneumonitis outside the DLT window” value (stage 1, including 3 severe cases) was 8 patients.
